The term IC50 denotes the concentration that inhibits the measured activity by half. Lower therefore signals higher potency.

The record followed here is BindingDB's records for patent US10626113 (Columbia University, 2020).

The test has as its target cGMP-specific 3',5'-cyclic phosphodiesterase (Homo sapiens, UniProt O76074). Kind of test: PDE5 Inhibition Assay. As to the method:
Test compounds were supplied as liquid solutions of 10 mM concentration in DMSO. Sildenafil, used as a standard was dissolved in DMSO. […] 0.1 ng of enzyme was used per reaction, and the substrate was 100 nM FAM-cGMP.Assay conditions: A series of dilutions of the test compounds were prepared with 10% DMSO in assay buffer and 5 μl of the dilution was added to a 50 μl reaction so that the final concentration of DMSO is 1% in all of reactions. The enzymatic reactions were conducted at room temperature for 60 minutes in a 50 μl mixture containing PDE assay buffer, 100 nM FAM-cAMP or 100 nM FAM-cGMP, a PDE enzyme, and the test compound. After the enzymatic reaction, 100 μl of a binding solution (1:100 dilution of the binding agent with the binding agent diluent) was added to each reaction and the reaction was performed at room temperature for 60 minutes. […] Fluorescence intensity is converted to fluorescence polarization using the Tecan Magellan6 software. The fluorescence polarization data were analyzed using the computer software, Graphpad Prism. The fluorescence polarization (FPt) in absence of the compound in each data set was defined as 100% activity. In the absence of PDE and the compound, the value of fluorescent polarization (FPb) in each data set was defined as 0% activity. The percent activity in the presence of the compound was calculated according to the following equation: % activity=(FP−FPb)/(FPt−FPb)×100%, where FP=the fluorescence polarization in the presence of the compound.

On to `COc1ccc(Nc2c3c(nc4ccc(C#N)cc24)CCN(C(C)=O)C3)cc1Cl` [US10899756, Compound S], for which the IC50 came to 593 nM.

Take `COc1cc(Nc2c3c(nc4ccc(C#N)cc24)CCN(C(C)=O)C3)ccc1Cl` [US10899756, Compound T]: the midpoint of inhibition, the IC50, lay at 425 nM.

`COc1ccc(C(C)Nc2c3c(nc4ccc(C#N)cc24)CCN(C(C)=O)C3)cc1Cl` (centres undefined) [US10899756, Compound V] registered an IC50 of 26.9 nM.

Take `COc1ccc(CCNc2c3c(nc4ccc(C#N)cc24)CCN(C(C)=O)C3)cc1Cl` [US10899756, Compound W]: the IC50 was determined as 10.6 nM.
